Read-outs that look alike come from different tables or passages of the source.
Key:
[1] = target: T1, human KRAS G12C protein (Homo sapiens, UniProt P01116, G12C); test: Thermal shift: melting temperature of KRAS G12C protein; type: binding; settings: for Tm (° C.): KRAS G12C protein 5.37 μM with compound 10 μM, 1 hour incubation; for ΔTm (° C.) / ΔTm at 10 µM: compound 10 μM, Tm minus Tm of DMSO solvent control
T1 construct: purchased Beijing SinoBiological Co., Ltd. 12259-H07E2
Protocol: A solution containing […] (pH 7.5), 1 mM DTT, 5×SYPRO Orange and 150 mM NaCl was prepared as the experimental buffer, and a final concentration of 5.37 μM human KRAS G12C protein was added thereto. […] After incubating at room temperature in the dark for 1 hour, the PCR tube was put into the PCR instrument, QuantStudio Software v1.3 was opened, and the melting temperature of KRAS G12C protein in different treatment groups was detected by melt curve function (heating from 25° C. to 95° C., 0.03° C./s). The experimental data file of PCR instrument was imported into thermal shift software, and the melting temperature (Tm) of each treatment group was obtained, and the change value of melting temperature (Δ Tm) was obtained by subtracting the Tm of DMSO solvent control group.

[2] = test system: NCI-H358 cells (KRAS G12C mutant cell line); test: Inhibition of NCI-H358 cell proliferation (CellTiter-Glo, 72 h); type: cell-based, human
Text: (§1) As a preferred embodiment of the present disclosure, the detection method of NCI-H358 cell proliferation inhibitory activity and Mia PaCa-2 cell proliferation inhibitory activity is as follows: through cell culture, adding different concentrations of compound solutions to the cultured cells, continuing the culture for a period of time and measuring the cell proliferation; • further, the method of cell culture is: adjusting the cells to a suitable cell concentration with complete medium and spreading the cell suspension in well plates for culture; preferably, the culture conditions are 37° C., 5% CO2 incubator overnight; preferably, the cell suspension is spread in 96-well plates, 48-well plates, 24-well plates, 12-well plates or 6-well plates, more preferably 96-well plates; preferably, the suitable cell concentration is 1500-4000 cells/well, with 90 μL of cell suspension added to each well; • further, the compound solution is prepared with DMSO and may be further diluted with medium; preferably, the compound solution has a concentration gradient starting from 100 μM at 4-fold dilution, more preferably starting from 30 μM at 4-fold dilution, most preferably starting from 10 μM at 4-fold dilution; • further, the volume of the compound solution or solvent added to each well is 1-10 μL, preferably 10 μL; • further, after adding the compound solution, the conditions for continuing the culture are 37° C., 5% CO2 incubator; preferably, the culture time is 24-72 h, more preferably 72 h; • further, the method for measuring cell proliferation is MTT, CCK8, CellTiter-Glo; preferably the method is CellTiter-Glo; • further, the cell proliferation is read using a microplate reader, more preferably a BioTek Synergy H1 microplate reader.
(§2) When NCI-H358 or Mia PaCa-2 cells were cultured to the appropriate fusion level, the NCI-H358 or Mia PaCa-2 cells were collected, and the cells were adjusted to the appropriate cell concentration using a complete medium, and the cell suspension was spread in a 96-well plate, 90 μL per well, and placed in a 37° C., 5% CO2 incubator overnight; and compound solutions of different concentrations were prepared using DMSO and culture medium; and a solvent control was set, the compound solution was added to a 96-well plate, 10 μL per well, at 37° C. in a 5% CO2 incubator for 72 hours; CellTiter-Glo solution was added thereto and the mixture was mixed well by shaking, incubated for 10 min in the dark, and read by BioTek Synergy H1 microplate reader.
(§3) The luminescence signal values were used to calculate the inhibition rate, the concentration and the inhibition rate were fitted to a nonlinear regression curve using Graphpad Prism software, then the IC50 value was obtained.

[3] = test system: Mia PaCa-2 cells (KRAS G12C mutant cell line); test: Inhibition of Mia PaCa-2 cell proliferation (CellTiter-Glo, 72 h); type: cell-based, human
Text: as §1, §2, §3

SMILES	Tm (° C.) [1] [°C]	ΔTm (° C.) [1] [°C]	IC50 [2] [nM]	IC50 [3] [nM]	IC50 ([2]; Homo sapiens) [nM]	IC50 ([3]; Homo sapiens) [nM]	ΔTm at 10 µM [1] [°C]
C=CC(=O)N1CCN(c2nc(=O)n(-c3c(SC)ccnc3C(C)C)c3nc(-c4c(F)cccc4SC)c(F)cc23)[C@@H](C)C1 [Embodiment 131]	61.2	11.7	48	47			
C=CC(=O)N1C[C@H](C)N(c2nc(=O)n(-c3c(SC)ccnc3C(C)C)c3nc(-c4c(O)cccc4F)c(Cl)cc23)C[C@H]1C [Embodiment 166, 4-((2S, 5R)-4-acryloyl-2,5-dimethylpiperazin-1-yl)-6-chloro-7-(2-fluoro-6-hydroxyphenyl)-1-(2-isopropyl-4-(methylthio)pyridin-3-yl) pyrido [2,3-d] pyrimidin-2 (1H)-one]					16	23	
C=CC(=O)N1CCN(c2nc(=O)n(-c3c(SC)ccnc3C(C)C)c3nc(-c4c(N)c(Cl)cc(Cl)c4F)c(Cl)cc23)[C@@H](C)C1 [Embodiment 191, 4-((s)-4-acryloyl-2-methylpiperazine-1-yl)-7-(2-amino-3,5-dichloro-6-fluorophenyl)-6-chloro-1-(2-isopropyl-4-(methylthio)pyridin-3-yl) pyrido [2,3-d] pyrimidin-2 (1H)-one]					32	16	
C=CC(=O)N1CCN(c2nc(=O)n(-c3c(SC)cc(C)nc3C(C)C)c3nc(-c4c(O)cccc4F)c(F)cc23)[C@@H](C)C1 [Embodiment 152, 4-((S)-4-acryloyl-2-methylpiperazin-1-yl)-6-fluoro-7-(2-fluoro-6-hydroxyphenyl)-1-(2-isopropyl-6-methyl-4-(methylthio)pyridin-3-yl) pyrido [2,3-d] pyrimidin-2 (1H)-one]	60.0				45	91	11.4
C=CC(=O)N1CCN(c2nc(=O)n(-c3c(SC)ccnc3C(C)C)c3nc(-c4c(O)cccc4F)c(Cl)cc23)[C@@H](C)C1 [Embodiment 130]	61.5	10.9	14	41			
C=CC(=O)N1C[C@H](C)N(c2nc(=O)n(-c3c(SC)ccnc3C(C)C)c3nc(-c4c(N)ccc(Cl)c4F)c(Cl)cc23)C[C@H]1C [Embodiment 165, 4-((2S, 5R)-4-acryloyl-2,5-dimethylpiperazin-1-yl)-7-(6-amino-3-chloro-2-fluorophenyl)-6-chloro-1-(2-isopropyl-4-(methylthio)pyridin-3-yl) pyrido [2,3-d] pyrimidin-2 (1H)-one]	58.0				5.9	7.6	11
C=CC(=O)N1CCN(c2nc(=O)n(-c3c(S(C)(=O)=O)ccnc3C(C)C)c3nc(-c4c(O)cccc4F)c(Cl)cc23)[C@@H](C)C1 [Embodiment 155, 4-((S)-4-acryloyl-2-methylpiperazin-1-yl)-6-chloro-7-(2-fluoro-6-hydroxyphenyl)-1-(2-isopropyl-4-(methylsulfonyl)pyridin-3-yl) pyrido [2,3-d] pyrimidin-2 (1H)-one]	60.9				24	26	11.1
C=CC(=O)N1CCN(c2nc(=O)n(-c3c(SC)ccnc3C(C)C)c3nc(-c4c(O)cccc4F)c(F)cc23)[C@@H](C)C1 [Embodiment 60, 4-((S)-4-acryloyl-2-methylpiperazin-1-yl)-6-fluoro-7-(2-fluoro-6-hydroxyphenyl)-1-(2-isopropyl-4-(methylthio)pyridin-3-yl)pyrido[2,3-d]pyrimidin-2(1H)-one]	60.2				40	60	11.6
C=CC(=O)N1CCN(c2nc(=O)n(-c3c(C)ccnc3C(C)C)c3nc(-c4ccccc4SC)c(F)cc23)[C@@H](C)C1 [Embodiment 138]	59.4	8.8	67	104			
C=CC(=O)N1CCN(c2nc(=O)n(-c3c(SC)ccnc3C(C)C)c3nc(-c4c(F)cccc4F)c(F)cc23)[C@@H](C)C1 [Embodiment 154, (S)-4-(4-acryloyl-2-methylpiperazin-1-yl)-7-(2,6-difluorophenyl)-6-fluoro-1-(2-isopropyl-4-(methylthio)pyridin-3-yl)pyrido[2,3-d]pyrimidin-2(1H)-one]					79	68	
C=CC(=O)N1CCN(c2nc(=O)n(-c3c(SC)ccnc3C(C)C)c3nc(-c4c(N)ccc(Cl)c4F)c(Cl)cc23)[C@@H](C)C1 [Embodiment 150, 4-((S)-4-acryloyl-2-methylpiperazin-1-yl)-7-(6-amino-3-chloro-2-fluorophenyl)-6-chloro-1-(2-isopropyl-4-(methylthio)pyridin-3-yl) pyrido [2,3-d] pyrimidin-2 (1H)-one]	60.2				5.4	8.6	13.4
C=CC(=O)N1CCN(c2nc(=O)n(-c3c(SC)ccnc3C(C)C)c3nc(-c4c(N)ccc(Cl)c4F)c(F)cc23)[C@@H](C)C1 [Embodiment 151, 4-((S)-4-acryloyl-2-methylpiperazin-1-yl)-7-(6-amino-3-chloro-2-fluorophenyl)-6-fluoro-1-(2-isopropyl-4-(methylthio)pyridin-3-yl)pyrido[2,3-d]pyrimidin-2(1H)-one]					39	59	
C=CC(=O)N1CCN(c2nc(=O)n(-c3c(C)ccnc3CC(C)C)c3nc(-c4c(F)cccc4SCC)c(F)cc23)[C@@H](C)C1 [Embodiment 118]	59.0	8.4	89	82			
C=CC(=O)N1CCN(c2nc(=O)n(-c3c(C)ccnc3C(C)C)c3nc(-c4c(F)cccc4S(C)(=O)=O)c(F)cc23)[C@@H](C)C1 [Embodiment 77, (S)-4-(4-acryloyl-2-methylpiperazin-1-yl)-6-fluoro-1-(2-isopropyl-4-methylpyridin-3-yl)-7-(2-(methylsulfonyl-6-fluoro)phenyl) pyrido [2,3-d] pyrimidin-2 (1H)-one]	60.4				117	120	9.8
C=CC(=O)N1CCN(c2nc(=O)n(-c3c(S(C)(=O)=O)ccnc3C(C)C)c3nc(-c4c(O)cccc4F)c(F)cc23)[C@@H](C)C1 [Embodiment 133, 4-((S)-4-acryloyl-2-methylpiperazin-1-yl)-6-fluoro-7-(2-fluoro-6-hydroxyphenyl)-1-(2-isopropyl-4-(methylsulfonyl)pyridin-3-yl) pyrido [2,3-d] pyrimidin-2 (1H)-one]					25	46	
C=CC(=O)N1CCN(c2nc(=O)n(-c3c(SC)ccnc3C(C)C)c3nc(-c4c(F)cccc4F)c(F)cc23)[C@@H](C)C1 [Embodiment 169, (S)-4-(4-acryloyl-2-methylpiperazin-1-yl)-7-(2,6-difluorophenyl)-6-fluoro-1-(2-isopropyl-4-(methylthio)pyridin-3-yl) pyrido [2,3-d] pyrimidin-2 (1H)-one]			79	68			
C=CC(=O)N1CCN(c2nc(=O)n(-c3c(C)ccnc3C(C)C)c3nc(-c4c(F)cccc4SC)c(F)cc23)[C@@H](C)C1 [Embodiment 75, (S)-4-(4-acryloyl-2-methylpiperazin-1-yl)-6-fluoro-7-(2-fluoro-6-(methylthio)phenyl)-1-(2-isopropyl-4-methylpyridin-3-yl) pyrido[2,3-d]pyrimidin-2 (1H)-one]	61.2				24	34	10.6
C=CC(=O)N1CCN(c2nc(=O)n(-c3c(SC)ccnc3C(C)C)c3nc(-c4c(O)cccc4F)c(F)cc23)[C@@H](C)C1 (single isomer, unassigned) [Embodiment 60-1]					28	55	

— patent US12497396B2, “Nitrogen-containing heterocyclic derivatives, method therefor and application therefor as inhibitors of KRAS G12C for the treatment of cancers” (SHANGHAI HANSOH BIOMEDICAL CO., LTD., priority 2019, dated 2025)
